According to patent publication US11202776B2, “Treatment of gastroparesis with triazaspiro[4.5]decanone” (Millennium Pharmaceuticals, Inc., priority 2017, dated 2021):
Where a name gives a salt, the structure may show the parent alone. Read-outs that look alike come from different tables or passages of the source.

Assay: Phase I single-ascending dose (SAD) pharmacokinetics incl. food effect, plasma concentration of the Compound
Format: in vivo, human
Details: for half-life / AUC(0-inf) / AUC(0-t) / Cmax / Tmax: human, plasma
Description: A phase I randomized, double-blind, placebo-controlled, adaptive-design, single-ascending dose (SAD) and multiple-ascending dose (MAD) study was conducted in healthy human subjects to evaluate the safety, tolerability, pharmacokinetics (PK), pharmacodynamics (PD), food effect, and optimal oral dose of 3-((1-cyclohexyl-4-oxo-8-(4-oxo-4-phenylbutyl)-1,3,8-triazaspiro[4.5]decan-3-yl)methyl)benzoic acid maleate (hereinafter, “the Maleate Salt”). The SAD phase included an arm to evaluate food effect on the PK of the Maleate Salt. The SAD phase also evaluated the effect of the Maleate Salt on ECG parameters, including an assessment of QT-interval changes using exposure-response analysis.
The Maleate Salt was formulated in the study as immediate-release, hard gelatin capsules for oral administration. Each capsule contained 5 mg or 25 mg of the Maleate Salt, as well as microcrystalline cellulose NF (AVICEL® PH-102), sodium starch glycolate NF (EXPLOTAB®), and magnesium stearate NF, all filled into a size 3 hard gelatin capsule. A matching placebo containing the same amount of microcrystalline cellulose NF in place of the Maleate Salt was used in the study. The Maleate Salt capsules and matching placebo capsules were packaged in high-density polyethylene (HDPE) bottles with polypropylene caps and stored at controlled conditions per the USP.
A total of 54 subjects received at least 1 dose of the Maleate Salt, ranging from 5 mg to the maximum single PO dose of 300 mg. Six subjects received a maximum single PO dose of 300 mg and 5 subjects received a total of 900 mg of the Maleate Salt over 5-day period (100 mg BID for 4 days with single 100 mg on Day 5).
The SAD phase had 7 cohorts dosed at 5 mg (cohort 1), 10 mg (cohort 2), 25 mg (cohort 3), 50 mg (cohort 4), 100 mg (cohort 5), 200 mg (cohort 6), and 300 mg (cohort 7) of the Maleate Salt. In each cohort, there were 6 active- and 2 placebo-treated subjects. Subjects were administered the Maleate Salt in the fasting state with 1 exception: subjects in the 25 mg cohort (cohort 3) received the Maleate Salt while fasting and again after a high-fat breakfast to determine food effect on PK.
Mean plasma concentration-time profiles for 3-((1-cyclohexyl-4-oxo-8-(4-oxo-4-phenylbutyl)-1,3,8-triazaspiro[4.5]decan-3-yl)methyl)benzoic acid (hereinafter, “the Compound”) following a single PO dose of the Maleate Salt are shown in FIG. 1.
In evaluating food effect on the PK of the Maleate Salt, subjects on Day 1 in cohort 3 were administered a single dose of the Maleate Salt at 25 mg or placebo in the fasted state. On Day 3, the same subjects received an identical dose 30 minutes after consumption of a standardized, high-fat, high-calorie breakfast.

[1] = po, 5 mg, single PO dose 5 mg, fasted, healthy subjects
[2] = po, 10 mg, single PO dose 10 mg, fasted, healthy subjects
[3] = po, 25 mg, single PO dose 25 mg, fasted, healthy subjects
[4] = po, 25 mg, single PO dose 25 mg, fed (high-fat breakfast), healthy subjects
[5] = po, 50 mg, single PO dose 50 mg, fasted, healthy subjects
[6] = po, 100 mg, single PO dose 100 mg, fasted, healthy subjects
[7] = po, 200 mg, single PO dose 200 mg, fasted, healthy subjects
[8] = po, 300 mg, single PO dose 300 mg, fasted, healthy subjects

For `O=C(O)c1cccc(CN2CN(C3CCCCC3)C3(CCN(CCCC(=O)c4ccccc4)CC3)C2=O)c1` [the Maleate Salt, 3-((1-cyclohexyl-4-oxo-8-(4-oxo-4-phenylbutyl)-1,3,8-triazaspiro[4.5]decan-3-yl)methyl)benzoic acid maleate], the “Food effect on Tmax” value (25 mg single dose, high-fat meal prior to dosing vs fasted) was “did not alter Tmax”, the “Exposure versus dose administered” value (SAD phase, fasted conditions, 5-300 mg) was “approximately proportional to the dose administered” and the half-life (oral, across all cohorts in the SAD phase, read-out: Arithmetic mean T1/2 in fasted subjects (converted)) was about 4 h. The AUC(0-inf) [1] was 4.5 ng·h/mL, the AUC(0-t) [1] was 4.3 ng·h/mL and the Cmax [1] was 2.1 ng/mL. The half-life (po, 5 mg, single PO dose 5 mg, fasted, healthy subjects, read-out: T1/2 (converted)) was about 1.6 h, the Tmax (po, 5 mg, single PO dose 5 mg, fasted, healthy subjects, read-out: Tmax) was 0.83 h and the AUC(0-inf) [2] was 13.1 ng·h/mL. The AUC(0-t) [2] was 12.9 ng·h/mL, the Cmax [2] was 6.2 ng/mL and the half-life (po, 10 mg, single PO dose 10 mg, fasted, healthy subjects, read-out: T1/2 (converted)) was about 1.6 h. For the same compound, the Tmax (po, 10 mg, single PO dose 10 mg, fasted, healthy subjects, read-out: Tmax) was 1.21 h, the AUC(0-inf) [3] was 30.4 ng·h/mL and the AUC(0-t) [3] was 30.5 ng·h/mL. The Cmax [3] was 10.5 ng/mL, the half-life (po, 25 mg, single PO dose 25 mg, fasted, healthy subjects, read-out: T1/2 (converted)) was 6 h and the Tmax (po, 25 mg, single PO dose 25 mg, fasted, healthy subjects, read-out: Tmax) was 1.8 h. It also gave an AUC(0-inf) [4] of 17.2 ng·h/mL, an AUC(0-t) [4] of 17.6 ng·h/mL and a Cmax [4] of 6.7 ng/mL. The half-life (po, 25 mg, single PO dose 25 mg, fed (high-fat breakfast), healthy subjects, read-out: T1/2 (converted)) was 7 h, the Tmax (po, 25 mg, single PO dose 25 mg, fed (high-fat breakfast), healthy subjects, read-out: Tmax) was 2.2 h and the AUC(0-inf) [5] was 56.7 ng·h/mL. The AUC(0-t) [5] was 53.2 ng·h/mL, the Cmax [5] was 22 ng/mL and the half-life (po, 50 mg, single PO dose 50 mg, fasted, healthy subjects, read-out: T1/2 (converted)) was 3.1 h. The Tmax (po, 50 mg, single PO dose 50 mg, fasted, healthy subjects, read-out: Tmax) was 1.04 h, the AUC(0-inf) [6] was 180 ng·h/mL and the AUC(0-t) [6] was 104 ng·h/mL. It also gave a Cmax [6] of 48.3 ng/mL, a half-life (po, 100 mg, single PO dose 100 mg, fasted, healthy subjects, read-out: T1/2 (converted)) of 5.4 h and a Tmax (po, 100 mg, single PO dose 100 mg, fasted, healthy subjects, read-out: Tmax) of 1.78 h. It also gave an AUC(0-inf) [7] of 242 ng·h/mL, an AUC(0-t) [7] of 240 ng·h/mL and a Cmax [7] of 106 ng/mL. The half-life (po, 200 mg, single PO dose 200 mg, fasted, healthy subjects, read-out: T1/2 (converted)) was 5.4 h, the Tmax (po, 200 mg, single PO dose 200 mg, fasted, healthy subjects, read-out: Tmax) was 1.24 h and the AUC(0-inf) [8] was 446 ng·h/mL. It also gave an AUC(0-t) [8] of 421 ng·h/mL, a Cmax [8] of 192 ng/mL and a half-life (po, 300 mg, single PO dose 300 mg, fasted, healthy subjects, read-out: T1/2 (converted)) of 5.1 h. It also gave a Tmax (po, 300 mg, single PO dose 300 mg, fasted, healthy subjects, read-out: Tmax) of 1.88 h, a half-life (po, 25 to 300 mg dose levels, single PO dose, read-out: Arithmetic mean T1/2 in fasted subjects (converted)) of 3.1 to 6 h and a Tmax (po, SAD phase, single PO doses, read-out: Median Tmax) of about 1.1 h.
